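Compound exposure: 48 hours, 5 concentrations, 96-well plates. TGI: concentration producing complete growth inhibition.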
What was measured:
Experiment in all cases: DTP human tumour cell line panel, 48 h
SN12C renal = test system: SN12C renal
HOP-92 NSCLC = test system: HOP-92 NSCLC
SR leukemia = test system: SR leukemia
KM20L2 colon = test system: KM20L2 colon
HL-60(TB) leukemia = test system: HL-60(TB) leukemia
CCRF-CEM leukemia = test system: CCRF-CEM leukemia
OVCAR-4 ovarian = test system: OVCAR-4 ovarian
MALME-3M melanoma = test system: MALME-3M melanoma
SNB-78 CNS = test system: SNB-78 CNS
OVCAR-8 ovarian = test system: OVCAR-8 ovarian
HOP-62 NSCLC = test system: HOP-62 NSCLC
HCT-116 colon = test system: HCT-116 colon
HCC-2998 colon = test system: HCC-2998 colon
RXF 393 renal = test system: RXF 393 renal
SF-268 CNS = test system: SF-268 CNS
A498 renal = test system: A498 renal
M14 melanoma = test system: M14 melanoma
CAKI-1 renal = test system: CAKI-1 renal
RXF-631 renal = test system: RXF-631 renal
SNB-19 CNS = test system: SNB-19 CNS
K-562 leukemia = test system: K-562 leukemia
A549 NSCLC = test system: A549 NSCLC
M19-MEL melanoma = test system: M19-MEL melanoma
XF 498 CNS = test system: XF 498 CNS
SK-OV-3 ovarian = test system: SK-OV-3 ovarian
SK-MEL-28 melanoma = test system: SK-MEL-28 melanoma
SF-539 CNS = test system: SF-539 CNS
MOLT-4 leukemia = test system: MOLT-4 leukemia
NCI-H522 lung = test system: NCI-H522 lung
UACC-257 melanoma = test system: UACC-257 melanoma
HT29 colon = test system: HT29 colon
NCI-H226 lung = test system: NCI-H226 lung
UO-31 renal = test system: UO-31 renal
SNB-75 CNS = test system: SNB-75 CNS
OVCAR-3 ovarian = test system: OVCAR-3 ovarian
786-0 renal = test system: 786-0 renal
NCI-H460 lung = test system: NCI-H460 lung
EKVX NSCLC = test system: EKVX NSCLC
DLD-1 colon = test system: DLD-1 colon
NCI-H23 lung = test system: NCI-H23 lung
IGROV1 ovarian = test system: IGROV1 ovarian
LXFL 529 NSCLC = test system: LXFL 529 NSCLC
U251 CNS = test system: U251 CNS
TK-10 renal = test system: TK-10 renal
SF-295 CNS = test system: SF-295 CNS
RPMI-8226 leukemia = test system: RPMI-8226 leukemia
SK-MEL-2 melanoma = test system: SK-MEL-2 melanoma
OVCAR-5 ovarian = test system: OVCAR-5 ovarian
COLO 205 colon = test system: COLO 205 colon
ACHN renal = test system: ACHN renal
LOX IMVI melanoma = test system: LOX IMVI melanoma
SW-620 colon = test system: SW-620 colon
DMS 114 small cell lung = test system: DMS 114 small cell lung
SK-MEL-5 melanoma = test system: SK-MEL-5 melanoma
UACC-62 melanoma = test system: UACC-62 melanoma
HCT-15 colon = test system: HCT-15 colon
KM12 colon = test system: KM12 colon

Measured: TGI

Cc1ccccc1NC(=O)C(=O)C1CN(c2ccccc2)N=C1N (stereo not given)
not listed: TK-10 renal | SF-295 CNS | RPMI-8226 leukemia | SK-MEL-2 melanoma | OVCAR-5 ovarian | COLO 205 colon | ACHN renal | LOX IMVI melanoma | SW-620 colon | DMS 114 small cell lung | SK-MEL-5 melanoma | UACC-62 melanoma | HCT-15 colon | KM12 colon
> 100 µM: all other assays above

CC1(C)C(=NNC(=S)NN)C(C)(C)C1=NNC(=S)NN
not listed: SR leukemia | HL-60(TB) leukemia | SNB-78 CNS | HCT-116 colon | A498 renal | MOLT-4 leukemia | UO-31 renal | NCI-H460 lung | LXFL 529 NSCLC | U251 CNS | HCT-15 colon | KM12 colon
> 100 µM: all other assays above

CCOC(=O)NC(=O)c1cn(CCN2CCN(C(=O)CCCCCCCCCCNc3ncnc4c3ncn4C3OC(CO)C(O)C3O)CC2)c(=O)[nH]c1=O (stereo not given)
not listed: OVCAR-4 ovarian | RXF 393 renal | M19-MEL melanoma | SF-539 CNS | NCI-H522 lung | NCI-H226 lung | OVCAR-3 ovarian | EKVX NSCLC | RPMI-8226 leukemia | OVCAR-5 ovarian
> 100 µM: all other assays above

From PubChem BioAssay (NCI)
